Patent US20040072825A1, “2-(2-(4-((2r)-2-methyl-3-(10h-phenothiazin-10-yl)propyl)-1-piperazinyl)-ethoxy) ethanol, process for the preparation thereof, pharmaceutical compositions containing said compound and therapeutic uses thereof” (priority 2000, published 2004)

What was measured:
[1] = target: T1, D4.4 dopaminergic receptor (Homo sapiens, UniProt P21917); assay: Radioligand binding, D4.4 receptor (CHO cell culture)
T1 construct: expressed in transfected cells; host or cells: CHO
T1 sequence (P21917 1-419): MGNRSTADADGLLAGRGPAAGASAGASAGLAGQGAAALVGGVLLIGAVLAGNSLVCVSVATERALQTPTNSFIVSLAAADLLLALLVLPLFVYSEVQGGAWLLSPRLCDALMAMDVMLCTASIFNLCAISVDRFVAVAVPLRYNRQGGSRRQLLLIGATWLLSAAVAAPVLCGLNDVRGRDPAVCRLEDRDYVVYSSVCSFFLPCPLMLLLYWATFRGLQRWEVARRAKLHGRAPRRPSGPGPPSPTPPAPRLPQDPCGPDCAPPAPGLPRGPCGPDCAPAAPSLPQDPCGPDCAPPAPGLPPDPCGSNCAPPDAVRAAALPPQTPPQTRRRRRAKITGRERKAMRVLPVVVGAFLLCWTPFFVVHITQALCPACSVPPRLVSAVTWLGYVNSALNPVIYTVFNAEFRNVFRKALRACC
Description: (§1) The test substances, biological materials and experimental protocols used in the study are described in Moguilevsky N. et al. (1994) Eur. J. […] List S. J. (1981) Proc. Natl. Acad. Sci.78:2620-2624; MacKenzie R. G. et al. (1994) Eur. J. Pharmacol. 266:79-85; Van Tol et al., (1992) Nature, 358:149-152. […] Filtermat A, Walac), then washed with cold buffer using a filtration unit ‘Cell Harvester’ (Brandel, Packard or Tomtec). The bound radioactivity is measured using a scintillation liquid (Formula 989 or Microscint 0, Packard) or solid (Meltilex B/HS, Wallac), and a scintillation counter (LS 6000, Beckman; Topcount, Packard; Betaplate, Wallac). […] Each experiment was performed in duplicate (n=2). In parallel, a positive control (concentration of reference substance causing 50% inhibition of radioligand specific binding) is tested to validate the assay. For competition experiments, membranes are incubated in the buffer containing the radioligand and increasing concentrations of unlabeled test substances. Each binding assay is validated with a reference compound tested in parallel. […] where BO and BI represent the total binding in the absence and presence of the unlabelled drug (in dpm/assay) and NSB is the amount of non specific binding (in dpm/assay). Analysis of raw data and pIC50 calculation is performed by computerized non-linear curve fitting methods using a set of equations describing competitive interactions between labelled and unlabeled ligands which obey the law of mass action. IC50 represents the concentration of the test substance inhibiting 50% of the specific binding of the radioligand. It is determined in competitive binding experiments by measuring the binding of a single concentration of a radioactive ligand at equilibrium with various concentrations of the unlabeled test substance. pIC50=−log IC50

[2] = target: T2, human D3 dopaminergic receptor (Homo sapiens, UniProt P35462); assay: Radioligand binding, human D3 receptor (CHO cell culture)
T2 construct: expressed in transfected cells; host or cells: CHO
T2 sequence (P35462 whole entry): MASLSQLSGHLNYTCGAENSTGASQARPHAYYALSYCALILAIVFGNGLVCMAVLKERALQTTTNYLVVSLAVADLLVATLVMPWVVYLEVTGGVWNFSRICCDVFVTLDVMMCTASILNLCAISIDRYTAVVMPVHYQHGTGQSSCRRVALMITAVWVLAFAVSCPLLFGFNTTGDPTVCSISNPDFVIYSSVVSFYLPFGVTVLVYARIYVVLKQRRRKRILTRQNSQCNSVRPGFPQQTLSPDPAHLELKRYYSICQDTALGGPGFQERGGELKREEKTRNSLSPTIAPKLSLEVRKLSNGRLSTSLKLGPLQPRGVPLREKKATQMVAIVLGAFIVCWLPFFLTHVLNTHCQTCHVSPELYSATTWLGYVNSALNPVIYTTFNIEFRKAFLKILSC
Description: as §1

D2 dopaminergic receptor = D2 dopaminergic receptor (Rattus norvegicus, UniProt P61169); assay: Radioligand binding, D2 receptor (rat striatum membranes)
Chain of D2 dopaminergic receptor (P61169 1-415 isoform P61169-2): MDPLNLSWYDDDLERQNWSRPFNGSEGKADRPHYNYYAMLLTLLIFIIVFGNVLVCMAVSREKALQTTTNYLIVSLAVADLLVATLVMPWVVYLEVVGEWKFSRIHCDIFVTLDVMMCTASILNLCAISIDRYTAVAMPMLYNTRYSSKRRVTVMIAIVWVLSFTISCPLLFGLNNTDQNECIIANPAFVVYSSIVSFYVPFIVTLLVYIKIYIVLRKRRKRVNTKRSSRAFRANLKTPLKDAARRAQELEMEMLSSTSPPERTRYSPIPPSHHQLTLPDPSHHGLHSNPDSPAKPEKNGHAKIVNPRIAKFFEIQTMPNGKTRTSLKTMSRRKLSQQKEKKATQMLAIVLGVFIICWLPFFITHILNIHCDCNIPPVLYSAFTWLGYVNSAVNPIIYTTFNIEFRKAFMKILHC
Description: as §1

[3] = target: human H1 histaminic receptor (Homo sapiens, UniProt P35367); assay: Radioligand binding, human H1 receptor (CHO cell culture)
Chain of human H1 histaminic receptor (P35367 whole entry): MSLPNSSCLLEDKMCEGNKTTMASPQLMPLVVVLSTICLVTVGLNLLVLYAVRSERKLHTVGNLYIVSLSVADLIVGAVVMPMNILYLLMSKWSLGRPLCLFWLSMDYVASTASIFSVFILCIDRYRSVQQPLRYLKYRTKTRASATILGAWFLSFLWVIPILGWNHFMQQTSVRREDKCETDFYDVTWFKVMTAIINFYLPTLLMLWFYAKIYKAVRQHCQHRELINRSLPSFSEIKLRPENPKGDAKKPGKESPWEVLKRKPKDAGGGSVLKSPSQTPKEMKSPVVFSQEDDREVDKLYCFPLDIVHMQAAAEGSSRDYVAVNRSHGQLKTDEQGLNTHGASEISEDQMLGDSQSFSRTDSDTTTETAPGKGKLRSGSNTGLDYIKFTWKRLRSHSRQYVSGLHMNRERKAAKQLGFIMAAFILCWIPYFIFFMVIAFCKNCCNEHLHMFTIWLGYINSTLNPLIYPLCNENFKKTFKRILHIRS
Description: as §1

5-HT3 receptor = target: T3, 5-HT3 receptor (Homo sapiens, UniProt P46098); assay: Radioligand binding, 5-HT3 receptor; conditions: mean of duplicate, read-out: percent inhibition of control specific binding
T3 sequence (P46098 24-478): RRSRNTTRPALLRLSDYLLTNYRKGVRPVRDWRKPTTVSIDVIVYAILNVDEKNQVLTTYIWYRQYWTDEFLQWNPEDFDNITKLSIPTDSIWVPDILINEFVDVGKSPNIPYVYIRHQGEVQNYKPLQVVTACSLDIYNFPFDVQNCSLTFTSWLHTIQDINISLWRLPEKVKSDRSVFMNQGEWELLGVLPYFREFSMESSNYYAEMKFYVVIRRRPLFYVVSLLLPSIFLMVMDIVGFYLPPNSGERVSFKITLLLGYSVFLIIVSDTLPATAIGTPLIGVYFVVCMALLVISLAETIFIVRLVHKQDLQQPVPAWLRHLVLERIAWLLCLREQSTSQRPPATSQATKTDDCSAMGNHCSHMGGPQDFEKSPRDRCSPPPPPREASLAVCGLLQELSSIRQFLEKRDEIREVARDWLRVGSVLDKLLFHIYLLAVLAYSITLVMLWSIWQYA

[4] = target: T4, 5-HT2 serotonergic receptor (Rattus norvegicus, UniProt P14842); assay: Radioligand binding, 5-HT2 receptor (rat cerebral cortex)
T4 construct: the rat cerebral cortex (5-HT2 receptor); from tissue; host or cells: rat cerebral cortex
T4 sequence (P14842 whole entry): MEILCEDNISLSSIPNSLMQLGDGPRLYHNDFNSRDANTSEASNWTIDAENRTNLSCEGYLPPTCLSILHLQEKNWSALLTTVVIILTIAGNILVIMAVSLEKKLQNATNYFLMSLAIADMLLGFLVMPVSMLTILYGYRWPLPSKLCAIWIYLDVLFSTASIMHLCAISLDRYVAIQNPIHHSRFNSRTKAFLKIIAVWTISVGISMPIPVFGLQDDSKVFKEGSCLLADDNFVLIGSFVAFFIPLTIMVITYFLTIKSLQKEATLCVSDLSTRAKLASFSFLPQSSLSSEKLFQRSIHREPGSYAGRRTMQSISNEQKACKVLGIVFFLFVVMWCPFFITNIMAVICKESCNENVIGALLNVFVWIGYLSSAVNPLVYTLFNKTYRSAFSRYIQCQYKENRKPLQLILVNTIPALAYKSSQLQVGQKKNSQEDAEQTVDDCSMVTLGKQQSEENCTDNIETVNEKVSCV
Description: as §1

[5] = system: postoperative nausea and vomiting; conditions: prophylactic administration, analgesia with morphine; cited from earlier work

CC(CN1CCN(CCOCCO)CC1)CN1c2ccccc2Sc2ccccc21 (racemic) [Dixyrazine, 2-(2-(4-(2-methyl-3-(10H-phenothiazin-10-yl)propyl)-1-piperazinyl)ethoxy)ethanol, reference compound]
inhibition at 0.1 µM ([1]; D4.4, 0.1 μM, mean of duplicate, read-out: percent inhibition of control specific binding): 24%
percent inhibition of control specific binding ([1]; D4.4, 10 μM, mean of duplicate, 10 µM): 104%
inhibition at 10 µM ([1]; D4.4, 10 μM, mean of duplicate, read-out: percent inhibition of control specific binding): > 90%
IC50 ([1]; D4.4, competitive binding, read-out: Affinity pIC50 (-log IC50) (converted)): 398 nM
inhibition at 0.1 µM ([2]; D3, 0.1 μM, mean of duplicate, read-out: percent inhibition of control specific binding): 84%
percent inhibition of control specific binding ([2]; D3, 10 μM, mean of duplicate, 10 µM): 100%
inhibition at 10 µM ([2]; D3, 10 μM, mean of duplicate, read-out: percent inhibition of control specific binding): > 90%
IC50 ([2]; D3, competitive binding, read-out: Affinity pIC50 (-log IC50) (converted)): 50.1 nM
percent inhibition of control specific binding (D2 dopaminergic receptor; D2, 10 μM, mean of duplicate, 10 µM): 94%
inhibition at 10 µM (D2 dopaminergic receptor; D2, 10 μM, mean of duplicate, read-out: percent inhibition of control specific binding): > 90%
IC50 (D2 dopaminergic receptor; D2, competitive binding, read-out: Affinity pIC50 (-log IC50) (converted)): 5.01 nM
percent inhibition of control specific binding ([3]; H1, 10 μM, mean of duplicate, 10 µM): 100%
inhibition at 10 µM ([3]; H1, 10 μM, mean of duplicate, read-out: percent inhibition of control specific binding): > 90%
IC50 ([3]; H1, competitive binding, read-out: Affinity pIC50 (-log IC50) (converted)): 0.501 nM
inhibition at 0.1 µM (5-HT3 receptor; 5-HT3, 0.1 μM): < 10%
inhibition at 10 µM (5-HT3 receptor; 5-HT3, 10 μM): 26%
percent inhibition of control specific binding ([4]; 5-HT2, 10 μM, mean of duplicate, 10 µM): 102%
IC50 ([4]; 5-HT2, competitive binding, read-out: Affinity pIC50 (-log IC50) (converted)): 6.31 nM
inhibition at 10 µM ([4]; read-out: percent inhibition of control specific binding, 5-HT2, 10 μM, mean of duplicate): > 90%
incidence and severity of vomiting (in words) [5]: reduces the incidence and severity of vomiting
